From patent publication US20120263762A1, “STABILISED PARTICLES COMPRISING 5-METHYL-(6S)-TETRAHYDROFOLATE” (BAYER PHARMA AKTIENGESELLSCHAFT, priority 2009, published 2012)

Assay: Particle size distribution of particles (laser diffraction, volume distribution)
Format: physicochemical
Conditions: micronized active ingredient before coating
Source text: When used herein, the term “d90 particle size” is intended to mean that the particle size distribution is so that at least 90% of the particles have a particle diameter of less than the specified value, calculated from the volume distribution curve under the presumption of spherical particles. In a similar way, the term “d50 particle size” is intended to mean that the particle size distribution is so that at least 50% of the particles have a particle diameter of less than the specified value, calculated from the volume distribution curve under the presumption of spherical particles.
Therefore, it is important to note that whenever the terms “particle size”, “particle size distribution”, “particle diameter”, “d90”, “d50”, etc., are used herein it should be understood that the specific values or ranges used in connection therewith are always meant to be determined from the volume distribution curve under the presumption of spherical particles. The particle size distribution may be determined by various techniques, e.g. laser diffraction, and will be known to the person skilled in the art. […] The particle size distribution of the particles, when incorporated in a wafer, may be determined by dissolving the film forming matrix, separation of the protected particles, and drying the protected particles. […]

C[C@]12CCC(=O)C=C1[C@@H]1C[C@@H]1[C@H]1[C@@H]3[C@@H]4C[C@@H]4[C@@]4(CCC(=O)O4)[C@@]3(C)CC[C@@H]12 [drospirenone]
d50: 2.2 μm
d90: 4.8 μm
